Experimental data: patent US20220202845A1, “METHODS AND COMPOSITIONS FOR TREATING CANCER” (Fred Hutchinson Cancer Research Center, priority 2018, published 2022)

Columns and labels:
p38α = p38α (Homo sapiens, UniProt Q16539); conditions: fold selective over p38β; cited from earlier work
DUX4 mRNA [1] = assay: DUX4 mRNA levels by RT-qPCR in SuSa testicular teratocarcinoma cells; assay type: cell-based, human; conditions: varying concentrations, 20 hours, vs DMSO vehicle set to one
Procedure: (§1) FIG. 13A-C. CDK7 inhibitor THZ1 reduces DUX4 expression in FSHD cells and cancer cells. (A) Differentiating MB200 FSHD2 patient-derived muscle cells, (B) SuSa testicular teratocarcinoma cells, or (C) KLE endometrial adenocarcinoma cells were treated with vehicle (−, DMSO) or varying concentrations of THZ1, as indicated, for 24 hours (A) or 20 hours (B-C) and cultures analyzed for DUX4 mRNA levels by RT-qPCR. […] Data are represented as relative expression (means, with error bars indicating standard deviation across three biological replicates) with expression in the absence of inhibitor set to one. FSHD muscle cells utilize DUX4 exon 3, while SuSa cells and KLE cells use DUX4 exon 3b.
(§2) Total RNA was extracted from whole cells using the NucleoSpin RNA kit (Machery-Nagel) according to the manufacturer's instructions. Isolated RNA was treated with DNase I (Thermo Fisher Scientific), heat inactivated, and reverse transcribed into cDNA using SuperScript III (Thermo Fisher Scientific) and oligo(dT) primers (Invitrogen) following the manufacturer's protocol. Quantitative PCR was carried out on a QuantStudio 7 Flex (Applied Biosystems) using primers specific for each mRNA and iTaq SYBR Green Supermix (Bio-Rad Laboratories, Inc.). […]
(§3) Next, the cells were analyzed for DUX4 mRNA levels by RT-qPCR.

DUX4 mRNA [2] = assay: DUX4 mRNA levels by RT-qPCR in differentiating MB200 FSHD2 patient-derived muscle cells; assay type: cell-based, human; conditions: varying concentrations, 24 hours, vs DMSO vehicle set to one
Procedure: as §1, §2, §3

DUX4 mRNA [3] = assay: DUX4 mRNA levels by RT-qPCR in KLE endometrial adenocarcinoma cells; assay type: cell-based, human; conditions: varying concentrations, 20 hours, vs DMSO vehicle set to one
Procedure: as §1, §2, §3

Sequence of p38α (Q16539 whole entry): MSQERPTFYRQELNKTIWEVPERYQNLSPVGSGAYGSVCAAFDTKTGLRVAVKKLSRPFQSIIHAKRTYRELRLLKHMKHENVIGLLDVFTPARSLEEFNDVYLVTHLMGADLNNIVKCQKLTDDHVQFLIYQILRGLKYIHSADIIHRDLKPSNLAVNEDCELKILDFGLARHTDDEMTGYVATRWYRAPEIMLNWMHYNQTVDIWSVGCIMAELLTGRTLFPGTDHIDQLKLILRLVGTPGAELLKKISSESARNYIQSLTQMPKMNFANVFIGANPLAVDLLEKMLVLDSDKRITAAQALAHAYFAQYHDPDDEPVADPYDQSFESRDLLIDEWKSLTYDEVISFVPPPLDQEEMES

Row | Compound | Selectivity for p38α over p38β (p38α) | DUX4 mRNA levels (relative expression) (DUX4 mRNA [1]) | DUX4 mRNA levels (relative expression) (DUX4 mRNA [2]) | DUX4 mRNA levels (relative expression) (DUX4 mRNA [3])
1 | O=c1ncn2nc(Sc3ccc(F)cc3F)ccc2c1-c1c(Cl)cccc1Cl [VX-745] | p38α22X selective over p38β | – | – | –
2 | CN(C)C/C=C/C(=O)Nc1ccc(C(=O)Nc2cccc(Nc3ncc(Cl)c(-c4c[nH]c5ccccc45)n3)c2)cc1 [THZ1] | – | inhibits DUX4 expression | inhibits DUX4 expression | inhibits DUX4 expression
3 | NC(=O)c1ccc(N(C(N)=O)c2c(F)cccc2F)nc1-c1ccc(F)cc1F [VX-702] | p38α14X selective over p38β | – | – | –
